Data: US8410130B2, “Synthesis of 8H-3A-aza-cyclopenta [A ]indenes and 5,10-dihydropyrrolo[1,2-B]isoquinolines derivatives and their use as antitumor therapeutic agents” (Academia Sinica, priority 2007, dated 2013)

Columns and labels:
[1] = tested on: Human mammary carcinoma (MX-1) tumor cells; assay: In vitro cytotoxicity, sulforhodamine B (SRB) assay; assay type: cell-based; conditions: Homo sapiens, 72-hr incubation
From the text: (§1) Human colon carcinoma HCT-116 cells, human prostate adenocarcinoma PC-3 and adenocarcinoma SK-OV-3 cells were obtained from American Type Culture Collection (ATCC, Rockville, Md.). Human mammary carcinoma (MX-1) tumor cells were obtained from MSKCC cell bank. The CCRF-CEM human lymphoblastic leukemia cells and their vinblastine resistant subline (CCRF-CEM/VBL, 680-fold resistance in vitro) were obtained from Dr. William Beck of the University of Illinois, Chicago, and CCRF-CEM/Taxol (330-fold resistance in vitro). Resistant cells CCRF-CEM/taxol were produced by exposing the parent cells to increasing sublethal concentration (IC50-IC90) of paclitaxel for six months.
(§2) In preparation for in vitro cytotoxicity assays, cells were cultured at an initial density 2-5×10^4 cells per milliliter. They were maintained in a 5% CO2-humidified atmosphere at 37° C. in RPMI medium 1640 (GIBCO/BRL) containing penicillin (100 units/mL), streptomycin (100 μg/mL, GIBCO/BRL), and 5% heat-inactivated FBS. For cells grown in suspension (such as CCRF-CEM and its sublines), cytotoxicity was measured, by using XTT microculture method in 96-well microtiter plates (Scudiero D A et al., Cancer Res. 1988, 48, 4827-4833). For solid tumor cells growing in a monolayer (such as MX-1 and HCT-116), cytotoxicity of the drug was determined, in duplicate, in 96-well microtiter plates by using the sulforhodamine B method (Skehan P et al., J. Natl. Cancer Inst 1990, 82, 1107-1112). For both methods, the absorbance of each well was measured with a microplate reader (Power Wave XS, Bio-Tek, Winooski, Vt.) after 72-hr incubation as described previously (Chou T-C et al., Proc. Natl. Acad. Sci. USA 2001, 98, 8113-8118). Dose-effect relationship data from 6 to 7 concentrations of each drug, in duplicate, were analyzed by using a computer program (Chou T-C et al., ComboSyn, Inc., Paramus, N J. 2005) based on the median-effect principle and plot (Chou T-C et al., Adv. Enzyme Regul. 1984, 22, 27-55; Chou T-C, Pharmacol. Rev. 2006, 58, 621-681).
(§3) The IC50 is defined by the concentration required to inhibit tumor cell growth by 50%. […] The growth inhibition of the compounds disclosed herein against human lymphoblastic leukemic cells (CCRF-CEM) and its drug-resistant sublines (resistant to vinblastine and taxol, CCRF-CEM/VBL and CCRF-CEM/taxol, respectively) is also shown in Table 5. […] Thus, the compounds disclosed herein are effective against multiple drug resistant tumors.

[2] = tested on: Human colon carcinoma HCT-116 cells; assay: as above; assay type: cell-based; conditions: Homo sapiens, HCT-116, 72-hr incubation
From the text: as §1, §2, §3

[3] = tested on: human prostate adenocarcinoma PC-3 xenograft; assay: Therapeutic effect in nude mice bearing PC-3 xenograft; assay type: in vivo; conditions: 50 mg/kg, QD×4, i.v. inj.
Description: FIGS. 3A-B illustrates the therapeutic effect of DA-1099 in nude mice bearing human prostate adenocarcinoma PC-3 xenograft (i.v. inj., n=3), average tumor size changes (FIG. 3A) and average body weight changes (FIG. 3B).
(§4) Athymic nude mice bearing the nu/nu gene were obtained from NCI, Frederick, Md. and used for all human tumor xenografts. Male nude mice, 6 weeks or older, weighing 20-24 g or more were used. Compounds were administered via the tail vein for i.v. injection or infusion as described previously (Chou T-C et al., Proc. Natl. Acad. Sci. USA 2001, 98, 8113-8118). Various formulations were prepared for injections into the mice for chemotherapeutic studies. As an example, a drug was dissolved in DSMO to make a 25 mg/ml fresh solution, 0.4 ml of this solution was mixed with 0.3 ml of Tween 80, plus 1.3 ml to make 2 ml of 5 mg/ml solution. Bolus injection volume was 0.1-0.2 ml per mouse.
(§5) The therapeutic effects of N-mustard DA-1099 against human prostate adenocarcinoma PC-3 s.c. xenograft in nude mice is shown in FIGS. 3, 3A and 3B. xenograft (i.v. inj., n=3), average tumor size changes (FIG. 3A) and average body weight changes (FIG. 3B). […] Under optimal therapeutic conditions, intravenous injection, of DA-1090, 1099, and 1107, 20 (QD×4), 50 (QD×3), and 20 (QD×4) mg/kg, respectively, yielded 53%, 78%, and 71% tumor suppression, respectively, on day 22.

CCRF-CEM/VBL = assay: In vitro cytotoxicity, XTT assay, vinblastine resistant subline; assay type: cell-based, human; conditions: for IC50: Homo sapiens, CCRF-CEM, XTT assay, 72-hr incubation; for fold of cross-resistant, CCRF-CEM/VBL vs IC50 of the parent cell line: numbers in brackets
From the text: as §1, §2, §3

[4] = tested on: ovarian adenocarcinoma SK-OV-3 xenograft; assay: Therapeutic effect in nude mice bearing SK-OV-3 xenograft; assay type: in vivo; conditions: intravenous injection, on day 22
Description: FIGS. 4A-B illustrates the therapeutic effects of DA-1090, 1099, 1107 in nude mice bearing ovarian adenocarcinoma SK-OV-3 xenograft (i.v. inj., n=3), average tumor size changes (FIG. 4A) and average body weight changes (FIG. 4B).
as §4, §5

[5] = tested on: human mammary carcinoma MX-1 xenograft; assay: Therapeutic effect in nude mice bearing MX-1 xenograft; assay type: in vivo; conditions: intravenous injection
Description: FIGS. 2A-B illustrates the therapeutic effect of DA-1090, 1099, 1124, 1012 and 1107 in nude mice bearing human mammary carcinoma MX-1 xenograft (i.v. inj, n=3-4), average tumor size changes (FIG. 2A) and average body weight changes (FIG. 2B).
as §4
Athymic nude mice bearing the nu/nu gene were used for human breast tumor MX-1 xenograft (FIGS. 2, 2A and 2B). Nude mice were obtained from National Cancer Institute, Frederick, Md. Male mice, 6 weeks old or older, weighing 22 g or more were used for experiments with subcutaneous tumor inoculation as described previously (Chou T-C, Pharmacol. Rev. 2006, 58, 621-681). Drug was administrated via the tail vein by iv injection. Tumor volumes were assessed by measuring length×width×height (or width) by using caliper. An example of vehicle used was 20 μL DMSO in 180 μL saline. All animal studies were conducted in accordance with the guidelines of the U.S. National Institutes of Health Guide for the Care and Use of Animals and the protocol approved by the Institutional Animal Care and Use Committee.

[6] = tested on: CCRF-CEM human lymphoblastic leukemia cells; assay: In vitro cytotoxicity, XTT assay, 72-hr incubation; assay type: cell-based; conditions: Homo sapiens, CCRF-CEM
From the text: as §1, §2, §3

CCRF-CEM/Taxol = assay: In vitro cytotoxicity, XTT assay, taxol resistant subline; assay type: cell-based, human; conditions: for IC50: Homo sapiens, CCRF-CEM, XTT assay, 72-hr incubation; for fold of cross-resistant, CCRF-CEM/Taxol vs IC50 of the parent cell line: numbers in brackets
From the text: as §1, §2, §3

[7] = 30 mg/kg, every other two days (Q2D), two times
[8] = 18 mg/kg, every other two days (Q2D), two times

| Compound | IC50 [1] | IC50 [2] | tumor-growth suppression [3] | IC50 (CCRF-CEM/VBL) | fold of cross-resistant, CCRF-CEM/VBL vs IC50 of the parent cell line (CCRF-CEM/VBL) | tumor suppression ([4]; 50 mg/kg (QD×3)) | antitumor therapeutic effect (tumor size) ([5]; 18 mg/kg, daily (QD) 3 times) | toxicity ([5]; 18 mg/kg, daily (QD) 3 times) | IC50 [6] | IC50 (CCRF-CEM/Taxol) | fold of cross-resistant, CCRF-CEM/Taxol vs IC50 of the parent cell line (CCRF-CEM/Taxol) | tumor suppression ([4]; 20 mg/kg (QD×4)) | antitumor therapeutic effect (tumor size) [5, 7] | toxicity [5, 7] | antitumor therapeutic effect (tumor size) [5, 8] | toxicity [5, 8] |
| --- | --- | --- | --- | --- | --- | --- | --- | --- | --- | --- | --- | --- | --- | --- | --- | --- |
| CCc1c(CO)c(CO)c2n1-c1ccccc1C2 [DA-1099, (3-Ethyl-2-hydroxymethyl-8H-3a-azacyclopenta[a]inden-1-yl)methanol] | 1080 nM | 825 nM | complete tumor-growth suppression | 133 nM | [0.37x] | 78% | tumor total disappearance | low toxicity | 356 nM | 229 nM | [0.64x] |  |  |  |  |  |
| Cc1c(CO)c(CO)c2n1Cc1ccccc1C2 [DA-1107, (2-Hydroxymethyl-3-methyl-5,10-dihydropyrrolo[1,2-b]isoquinolin-1-yl)methanol] | 616 nM | 281 nM |  | 93 nM | [1.15x] |  |  |  | 81 nM | 98 nM | [1.21x] | 71% | tumor total disappearance | low toxicity |  |  |
| Cc1c(CO)c(CO)c2n1-c1ccccc1C2 [DA-1090, (2-Hydroxymethyl-3-methyl-8H-3a-aza-cyclopenta[a]inden-1-yl)methanol] | 357 nM | 332 nM |  | 29.7 nM | [0.39x]^c |  |  |  | 76 nM | 66.3 nM | [0.87x] | 53% |  |  | tumor total disappearance | low toxicity |
